The source of these data is ChEMBL document CHEMBL1141542, “Synthesis and evaluation of 3- and 7-substituted geranylgeranyl pyrophosphate analogs” (Bioorg Med Chem Lett, 2008).

One may read the Km as the concentration of substrate that gives half-maximal velocity. As a reminder, the IC50 is the midpoint of a concentration-inhibition curve. Read a low IC50 as greater potency in that assay.

A short description of assay [1]: Activity of GGTase 1.
Assay [2] is described as follows: Inhibition of FTase.
A short description of assay [3]: Activity of FTase.
The nature of assay [4]: Inhibition of GGTase 1.

As for `C=C/C(=C\COP(=O)(O)OP(=O)(O)O)CC/C=C(\C)CC/C=C(\C)CCC=C(C)C`, in assay [1], the Km was 1.75 µM. In addition, half-maximal inhibition in assay [2] (IC50) required 715 nM. In turn, `C=CC/C(=C\COP(=O)(O)OP(=O)(O)O)CC/C=C(\C)CCC=C(C)C` displayed a 50% inhibitory concentration (IC50) in assay [2] of 189 nM. With `C=C/C(=C\COP(=O)(O)OP(=O)(O)O)CC/C=C(\C)CCC=C(C)C`, in assay [3], the Km came to 0.156 µM. Take `C=C/C(=C\CC/C(C)=C/COP(=O)(O)OP(=O)(O)O)CC/C=C(\C)CCC=C(C)C`: the IC50 in assay [4] was 1000 nM; in assay [2], more than 5000 nM. Regarding `C=CC/C(=C\COP(=O)(O)OP(=O)(O)O)CC/C=C(\C)CC/C=C(\C)CCC=C(C)C`, the 50% inhibitory concentration (IC50) turned out to be 846 nM in assay [4] and 453 nM in assay [2].

Consider `C=CC/C(=C\CC/C(C)=C/COP(=O)(O)OP(=O)(O)O)CC/C=C(\C)CCC=C(C)C`, for which the Michaelis-Menten constant (Km) in assay [1] was determined as 0.027 µM. Besides, the 50% inhibitory concentration (IC50) in assay [2] is more than 5000 nM.
